Data taken from patent US5413915A (priority 1991, dated 1995).
Marks after values point to notes of the source that are not given here.

Columns and labels:
rat liver microsomes = type: biochemical; set-up: unit not given here
[1] = in vivo; cited from earlier work
Salmonella typhimurium = settings: cited from earlier work
[2] = in vivo; cited from earlier work; remark: listed apart in the source

Molecule | Detector Response, threshold dose (rat liver microsomes) | Teratogen Activity [1] | Mutagenicity (Salmonella typhimurium) | Tumorigen Activity [2] | Tumorigen Activity, assignment based on NCI/NTP carcinogenesis bioassay results [2] | Mutagenicity, direct-acting mutagen (Salmonella typhimurium)
ClCCCl [1,2-Dichloroethane] | 20 | - | + | + |  | 
C1COCCO1 [1,4-Dioxane] | 10 | - | - |  | + | 
Oc1ccccc1Cl [2-Chlorophenol] | < 1 | - | - | + |  | 
Oc1ccc2ccccc2c1 [2-Naphthol] | 20 | - |  | - |  | 
NC(N)=S [2-Thiourea] | 7 | + | + | + |  | 
Oc1cccc(Cl)c1 [3-Chlorophenol] | < 1 | - | - | + |  | 
Oc1ccc(Cl)cc1 [4-Chlorophenol] | < 1 | - | + | + |  | 
Oc1cccc2cccnc12 [8-Hydroxyquinoline] | 0.3 | - | + | + |  | 
CC(C)=O [Acetone] | > 50 | - | - | - |  | 
C=CC(N)=O [Acrylamide] | 0.2 | - |  | + |  | 
C=CC#N [Acrylonitrile] | 20 | + | + | + |  | 
O=C1c2ccccc2C(=O)c2ccccc21 [Anthraquinone] | 1-20 | - | - | - |  | 
CCNc1nc(Cl)nc(NC(C)C)n1 [Atrazine (ind.), Atrazine] | 0.05 | - | - | +^e |  | 
Cc1cc(C(C)(C)C)c(O)c(C(C)(C)C)c1 [BHT] | 200 | - | - | +/- |  | 
[Ba+2] [Barium(II)] | 20-100 | - | - | - |  | 
[Ca+2] [Calcium(II)] | 10 | - | - | +/- |  | 
CCOP(=S)(OCC)Oc1nc(Cl)c(Cl)cc1Cl [Chlorpyrifos (ind.), Chlorpyrifos] | 0.01 | + | - | - |  | 
N#CN [Cyanamid] | 30 | - | + | +^e |  | 
C[C@H](CCC(=O)O)[C@H]1CC[C@H]2[C@@H]3CC[C@@H]4C[C@H](O)CC[C@]4(C)[C@H]3C[C@H](O)[C@]12C [Deoxycholate] | 0.5 | + | - | - |  | 
CCOP(=S)(OCC)Oc1cc(C)nc(C(C)C)n1 [Diazinon (ind.), Diazinon] | 1-100 | + | - | - |  | 
CCN(CC)C(=S)S [Diethyldithiocarbamic acid] | 0.2 | + | - | +^t | - | 

Molecule | Detector Response, threshold dose (rat liver microsomes) | Teratogen Activity [1] | Mutagenicity (Salmonella typhimurium) | Tumorigen Activity [2] | Tumorigen Activity, assignment based on NCI/NTP carcinogenesis bioassay results [2] | Mutagenicity, direct-acting mutagen (Salmonella typhimurium)
CCN(CC)N=O [Diethylnitrosamine] | 0.1-1 | + | + | + |  | 
c1ccc(Nc2ccccc2)cc1 [Diphenylamine] | 100 | + | - | - |  | 
[Dy+3] [Dysprosium(III)] | 5 | - | - | - |  | 
O=S1OCC2C(CO1)C1(Cl)C(Cl)=C(Cl)C2(Cl)C1(Cl)Cl (stereo not shown) [Endosulfan (ind.), Endosulfan] | 0.1 | + | - | +^b | - | 
CCOC(=O)c1ccc(O)cc1 [Ethyl p-Hydroxybenzoate] | 30 | + | - | - |  | 
NC=O [Formamide] | 100 | + | - | - |  | 
O=C(O)CNCP(=O)(O)O [Glyphosate (ind.), Glyphosate] | 0.3 | - | - | - |  | 
C[C@]12CCC(=O)C=C1CC[C@@H]1[C@@H]2[C@@H](O)C[C@@]2(C)[C@H]1CC[C@]2(O)C(=O)CO [Hydrocortisone] | 0.1 | + | - | - |  | 
NC(=O)CI [Iodoacetamide] | 0.1 | - |  | + |  | 
[La+3] [Lanthanum(III)] | 5 | - | - | - |  | 
Cl[C@H]1[C@H](Cl)[C@@H](Cl)[C@@H](Cl)[C@H](Cl)[C@H]1Cl [Lindane (USP), Lindane] | 0.2 | + | - | + |  | 
CCOC(=O)CC(SP(=S)(OC)OC)C(=O)OCC (stereo not shown) [Malathion (ind.), Malathion] | 0.1 | + | - | - |  | +
[Mn+2] [Manganese(II)] | 5 | + | - | + |  | 
C=CC(=O)NCNC(=O)C=C [Methylene(bis)acrylamide, Methylene(bis)-acrylamide] | < 2 | - | - | - |  | 
Cc1cc(O)ccc1O [Methylhydroquinone] | 30 | - | - | - |  | 
O=N[O-].[Na+] [NaNO2] | 0.1 | + | + | + |  | 
CC(C)C(C(=O)OC(C#N)c1cccc(Oc2ccccc2)c1)c1ccc(Cl)cc1 (stereo not shown) [Sumicidin (ind.), Sumicidin] | 0.5 | -? |  | -? |  | 
Lecithin [Lecithin, fresh] |  | - | - | - |  | 
Lecithin [Lecithin, oxidized] |  | - | + | + |  | 
Magnesium(II) |  | - | - | - |  | 
Triton X-100 |  | - | - | - |  | 
